In brackets after ≈: the same amount, converted by molar mass. Activity calls are given as the source filed them. The rule behind the calls is not given here.
Tests used:
SMMC-7721 = test: Antiproliferative activity against human SMMC7721 cells assessed as cell growth inhibition by MTT assay; assay type: functional, cell-based
MDA-MB-231 = test: Antiproliferative activity against human MDA-MB-231 cells assessed as cell growth inhibition by MTT assay; assay type: functional, cell-based
[1] = Toxicity in nude mouse xenografted with human CNE2Z cells assessed as effect on kidney at 1 mg/kg, ip administered for 19 days by hematoxylin and eosin staining based assay; assay type: organism-based; conditions: in vivo, 456 h
[2] = Toxicity in nude mouse xenografted with human CNE2Z cells assessed as effect on lung at 1 mg/kg, ip administered for 19 days by hematoxylin and eosin staining based assay; assay type: organism-based; conditions: in vivo, 456 h
Heat shock protein HSP90 [3] = target: T1, Heat shock protein HSP90 (Homo sapiens, UniProt P07900+P08238); test: Inhibition of HSP90 ATPase activity (unknown origin) malachite-green phosphate assay; assay type: protein assay
[4] = Toxicity in nude mouse xenografted with human CNE2Z cells assessed as effect on liver at 1 mg/kg, ip administered for 19 days by hematoxylin and eosin staining based assay; assay type: organism-based; conditions: in vivo, 456 h
Heat shock protein HSP90 [5] = target: T1, Heat shock protein HSP90; test: Inhibition of HSP90 in human CNE2Z cells assessed as downregulation of HIF-1alpha expression at 10 to 40 uM by Western blot analysis; assay type: cell-based
SW480 = test: Antiproliferative activity against human SW480 cells assessed as cell growth inhibition by MTT assay; assay type: functional, cell-based
CNE2Z [6] = test: Antiproliferative activity against human CNE2Z cells assessed as cell growth inhibition by MTT assay; assay type: functional, cell-based
Heat shock protein HSP90 [7] = target: T1, Heat shock protein HSP90; test: Inhibition of HSP90 in human CNE2Z cells assessed as downregulation of Akt expression at 10 to 40 uM by Western blot analysis; assay type: cell-based
Heat shock protein HSP90 [8] = target: T1, Heat shock protein HSP90; test: Inhibition of HSP90 in human CNE2Z cells assessed as downregulation of c-Raf expression at 10 to 40 uM by Western blot analysis; assay type: cell-based
[9] = Solubility of the compound in water; assay type: physicochemical
Heat shock protein HSP90 [10] = target: T1, Heat shock protein HSP90; test: Inhibition of HSP90 in human CNE2Z cells assessed as downregulation of Bcl2 expression at 10 to 40 uM by Western blot analysis; assay type: cell-based
[11] = Toxicity in nude mouse xenografted with human CNE2Z cells assessed as effect on body weight at 1 mg/kg, ip administered for 19 days; assay type: organism-based; conditions: in vivo, 456 h
[12] = Solubility of the compound in water relative to 17-AAG; assay type: physicochemical; conditions: buffer
HepG2 = test: Antiproliferative activity against human HepG2 cells assessed as cell growth inhibition by MTT assay; assay type: functional, cell-based
CNE2Z [13] = test: Antitumor activity against human CNE2Z cells xenografted in nude mouse assessed as reduction in tumor volume at 1 mg/kg, ip administered for 19 days relative to control; assay type: functional; conditions: 456 h
Heat shock protein HSP90 [14] = target: T1, Heat shock protein HSP90; test: Inhibition of HSP90 in human CNE2Z cells assessed as downregulation of Her-2 expression at 10 to 40 uM by Western blot analysis; assay type: cell-based
[15] = Toxicity in nude mouse xenografted with human CNE2Z cells assessed as effect on body weight at 5 mg/kg, ip administered for 19 days; assay type: organism-based; conditions: in vivo, 456 h

Row | Compound | IC50 (SMMC-7721) [nM] | IC50 (MDA-MB-231) [nM] | Activity [1] | Activity [2] | IC50 (Heat shock protein HSP90 [3]) [nM] | Activity [4] | inhibition (Heat shock protein HSP90 [5]) | IC50 (SW480) [nM] | IC50 (CNE2Z [6]) [nM] | inhibition (Heat shock protein HSP90 [7]) | inhibition (Heat shock protein HSP90 [8]) | solubility [9] [µM] | inhibition (Heat shock protein HSP90 [10]) | Activity [11] | Ratio [12] | IC50 (HepG2) [nM] | inhibition in vivo at 1 mg/kg (CNE2Z [13]) [%] | inhibition (Heat shock protein HSP90 [14]) | Activity [15]
1 | C=CCNC1=C2C[C@@H](C)C[C@H](OC)[C@H](O[C@@H]3O[C@H](CO)[C@@H](O)[C@H](O)[C@H]3O)[C@@H](C)/C=C(\C)[C@H](OC(N)=O)[C@@H](OC)/C=C\C=C(/C)C(=O)NC(=CC1=O)C2=O (stereo in doubt) | 5260 | 28500 | Non-Toxic | Non-Toxic | > 100000 | Non-Toxic | Active | 6130 | 9200 | Active | Active | 661 (≈ 494 µg/mL) | Active | Non-Toxic | 10.5 | 6280 | 75.5 | Active | –
2 | COC1=C2C[C@@H](C)C[C@H](OC)[C@H](O)[C@@H](C)/C=C(\C)[C@H](OC(N)=O)[C@@H](OC)/C=C\C=C(/C)C(=O)NC(=CC1=O)C2=O [GELDANAMYCIN] | 110 | 620 | – | – | – | – | – | 510 | 310 | – | – | – | – | – | – | 1740 | – | – | –
3 | C=CCNC1=C2C[C@@H](C)C[C@H](OC)[C@H](O)[C@@H](C)/C=C(\C)[C@H](OC(N)=O)[C@@H](OC)/C=C\C=C(/C)C(=O)NC(=CC1=O)C2=O [TANESPIMYCIN] | 190 | 1790 | – | – | – | – | – | 280 | 8410 | – | – | 63 (≈ 36.9 µg/mL) | – | – | – | 320 | – | – | Non-Toxic
